# Key:
# Experiment in all cases: relative viability (nuclei count vs DMSO), 5 days (fraction); higher = more cells survive
# A-427 = tested on: A-427
# Outline: (§1)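 Medians of duplicate plates are given as relative viability. That measure is the nuclei count in treated wells divided by the count in vehicle wells. Counts were taken on 4× images of lung cancer cell lines in 1536-well plates, 5 days after pin-tool dosing the day after seeding with one drug alone or a fixed anchor-drug dose plus five library-drug doses (not always all listed) in √10 steps.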
# CAL-12T = tested on: CAL-12T
# Outline: as §1
# COR-L 105 = tested on: COR-L 105
# Outline: as §1
# EMC-BAC-2 = tested on: EMC-BAC-2
# Outline: as §1
# HARA = tested on: HARA
# Outline: as §1
# HCC-366 = tested on: HCC-366
# Outline: as §1
# HCC-827 = tested on: HCC-827
# Outline: as §1
# HOP-62 = tested on: HOP-62
# Outline: as §1
# LCLC-103H = tested on: LCLC-103H
# Outline: as §1
# NCI-H1395 = tested on: NCI-H1395
# Outline: as §1
# NCI-H1437 = tested on: NCI-H1437
# Outline: as §1
# NCI-H1755 = tested on: NCI-H1755
# Outline: as §1
# NCI-H1792 = tested on: NCI-H1792
# Outline: as §1
# NCI-H1915 = tested on: NCI-H1915
# Outline: as §1
# NCI-H2009 = tested on: NCI-H2009
# Outline: as §1
# NCI-H2228 = tested on: NCI-H2228
# Outline: as §1
# NCI-H23 = tested on: NCI-H23
# Outline: as §1
# NCI-H460 = tested on: NCI-H460
# Outline: as §1
# NCI-H522 = tested on: NCI-H522
# Outline: as §1
# NCI-H727 = tested on: NCI-H727
# Outline: as §1
# SK-LU-1 = tested on: SK-LU-1
# Outline: as §1
# SW 1573 = tested on: SW 1573
# Outline: as §1
structure (smiles),measurement,setting,value
CC(=O)O[C@@]12CO[C@@H]1C[C@H](O)[C@@]1(C)C(=O)[C@H](O)C3=C(C)[C@@H](OC(=O)[C@H](O)[C@@H](NC(=O)OC(C)(C)C)c4ccccc4)C[C@@](O)([C@@H](OC(=O)c4ccccc4)[C@H]21)C3(C)C [Docetaxel] + O=C(c1cc(Cc2n[nH]c(=O)c3ccccc23)ccc1F)N1CCN(C(=O)C2CC2)CC1 [Olaparib] (partner 8 µM),relative viability,A-427; first compound 0.0002 µM,0.662
same,relative viability,A-427; first compound 0.000632 µM,0.704
same,relative viability,A-427; first compound 0.002 µM,0.538
same,relative viability,A-427; first compound 0.006325 µM,0.292
same,relative viability,A-427; first compound 0.02 µM,0.198
same,relative viability,CAL-12T; first compound 0.0002 µM,0.591
same,relative viability,CAL-12T; first compound 0.000632 µM,0.392
same,relative viability,CAL-12T; first compound 0.002 µM,0.253
same,relative viability,CAL-12T; first compound 0.006325 µM,0.263
same,relative viability,CAL-12T; first compound 0.02 µM,0.173
same,relative viability,COR-L 105; first compound 0.0002 µM,0.8
same,relative viability,COR-L 105; first compound 0.000632 µM,0.591
same,relative viability,COR-L 105; first compound 0.002 µM,0.461
same,relative viability,COR-L 105; first compound 0.006325 µM,0.539
same,relative viability,COR-L 105; first compound 0.02 µM,0.331
same,relative viability,EMC-BAC-2; first compound 0.0002 µM,0.492
same,relative viability,EMC-BAC-2; first compound 0.000632 µM,0.47
same,relative viability,EMC-BAC-2; first compound 0.002 µM,0.364
same,relative viability,EMC-BAC-2; first compound 0.006325 µM,0.318
same,relative viability,EMC-BAC-2; first compound 0.02 µM,0.237
same,relative viability,HARA; first compound 0.0002 µM,0.858
same,relative viability,HARA; first compound 0.000632 µM,0.335
same,relative viability,HARA; first compound 0.002 µM,0.161
same,relative viability,HARA; first compound 0.006325 µM,0.21
same,relative viability,HARA; first compound 0.02 µM,0.0824
same,relative viability,HCC-366; first compound 0.0002 µM,0.245
same,relative viability,HCC-366; first compound 0.000632 µM,0.115
same,relative viability,HCC-366; first compound 0.002 µM,0.0486
same,relative viability,HCC-366; first compound 0.006325 µM,0.0381
same,relative viability,HCC-366; first compound 0.02 µM,0.0133
same,relative viability,HCC-827; first compound 0.0002 µM,0.626
same,relative viability,HCC-827; first compound 0.000632 µM,0.662
same,relative viability,HCC-827; first compound 0.002 µM,0.329
same,relative viability,HCC-827; first compound 0.006325 µM,0.287
same,relative viability,HCC-827; first compound 0.02 µM,0.23
same,relative viability,HOP-62; first compound 0.0002 µM,0.336
same,relative viability,HOP-62; first compound 0.000632 µM,0.317
same,relative viability,HOP-62; first compound 0.002 µM,0.129
same,relative viability,HOP-62; first compound 0.02 µM,0.12
same,relative viability,LCLC-103H; first compound 0.0002 µM,0.744
same,relative viability,LCLC-103H; first compound 0.000632 µM,0.803
same,relative viability,LCLC-103H; first compound 0.002 µM,0.748
same,relative viability,LCLC-103H; first compound 0.006325 µM,0.643
same,relative viability,LCLC-103H; first compound 0.02 µM,0.481
same,relative viability,NCI-H1395; first compound 0.0002 µM,0.502
same,relative viability,NCI-H1395; first compound 0.000632 µM,0.469
same,relative viability,NCI-H1395; first compound 0.002 µM,0.481
same,relative viability,NCI-H1395; first compound 0.006325 µM,0.341
same,relative viability,NCI-H1395; first compound 0.02 µM,0.339
same,relative viability,NCI-H1437; first compound 0.0002 µM,0.613
same,relative viability,NCI-H1437; first compound 0.000632 µM,0.442
same,relative viability,NCI-H1437; first compound 0.002 µM,0.384
same,relative viability,NCI-H1437; first compound 0.006325 µM,0.269
same,relative viability,NCI-H1437; first compound 0.02 µM,0.177
same,relative viability,NCI-H1755; first compound 0.0002 µM,0.87
same,relative viability,NCI-H1755; first compound 0.000632 µM,0.729
same,relative viability,NCI-H1755; first compound 0.002 µM,0.578
same,relative viability,NCI-H1755; first compound 0.006325 µM,0.417
same,relative viability,NCI-H1755; first compound 0.02 µM,0.377
same,relative viability,NCI-H1792; first compound 0.0002 µM,0.281
same,relative viability,NCI-H1792; first compound 0.000632 µM,0.306
same,relative viability,NCI-H1792; first compound 0.002 µM,0.0724
same,relative viability,NCI-H1792; first compound 0.006325 µM,0.0761
same,relative viability,NCI-H1792; first compound 0.02 µM,0.0428
same,relative viability,NCI-H1915; first compound 0.0002 µM,0.278
same,relative viability,NCI-H1915; first compound 0.000632 µM,0.256
same,relative viability,NCI-H1915; first compound 0.002 µM,0.179
same,relative viability,NCI-H1915; first compound 0.006325 µM,0.144
same,relative viability,NCI-H1915; first compound 0.02 µM,0.0963
same,relative viability,NCI-H2009; first compound 0.0002 µM,0.606
same,relative viability,NCI-H2009; first compound 0.000632 µM,0.79
same,relative viability,NCI-H2009; first compound 0.002 µM,0.562
same,relative viability,NCI-H2009; first compound 0.006325 µM,0.397
same,relative viability,NCI-H2009; first compound 0.02 µM,0.149
same,relative viability,NCI-H2228; first compound 0.0002 µM,0.446
same,relative viability,NCI-H2228; first compound 0.000632 µM,0.275
same,relative viability,NCI-H2228; first compound 0.002 µM,0.153
same,relative viability,NCI-H2228; first compound 0.006325 µM,0.13
same,relative viability,NCI-H2228; first compound 0.02 µM,0.0992
same,relative viability,NCI-H23; first compound 0.0002 µM,0.366
same,relative viability,NCI-H23; first compound 0.002 µM,0.221
same,relative viability,NCI-H23; first compound 0.006325 µM,0.164
same,relative viability,NCI-H23; first compound 0.02 µM,0.105
same,relative viability,NCI-H460; first compound 0.0002 µM,0.373
same,relative viability,NCI-H460; first compound 0.000632 µM,0.31
same,relative viability,NCI-H460; first compound 0.002 µM,0.0608
same,relative viability,NCI-H460; first compound 0.006325 µM,0.0428
same,relative viability,NCI-H460; first compound 0.02 µM,0.0276
same,relative viability,NCI-H522; first compound 0.0002 µM,0.653
same,relative viability,NCI-H522; first compound 0.000632 µM,0.459
same,relative viability,NCI-H522; first compound 0.002 µM,0.532
same,relative viability,NCI-H522; first compound 0.006325 µM,0.499
same,relative viability,NCI-H522; first compound 0.02 µM,0.377
same,relative viability,NCI-H727; first compound 0.0002 µM,0.664
same,relative viability,NCI-H727; first compound 0.000632 µM,0.526
same,relative viability,NCI-H727; first compound 0.002 µM,0.682
same,relative viability,NCI-H727; first compound 0.006325 µM,0.645
same,relative viability,NCI-H727; first compound 0.02 µM,0.524
same,relative viability,SK-LU-1; first compound 0.0002 µM,0.479
same,relative viability,SK-LU-1; first compound 0.000632 µM,0.349
same,relative viability,SK-LU-1; first compound 0.002 µM,0.315
same,relative viability,SK-LU-1; first compound 0.006325 µM,0.256
same,relative viability,SK-LU-1; first compound 0.02 µM,0.167
same,relative viability,SW 1573; first compound 0.0002 µM,0.304
same,relative viability,SW 1573; first compound 0.000632 µM,0.223
same,relative viability,SW 1573; first compound 0.002 µM,0.199
same,relative viability,SW 1573; first compound 0.006325 µM,0.162
same,relative viability,SW 1573; first compound 0.02 µM,0.119
